The results in this text go back to patent US11760773B2, “Small molecule drug conjugates of gemcitabine monophosphate” (MaveriX Oncology, Inc., priority 2018, dated 2023).

For orientation: AUC(0-t) means exposure summed from dosing to a finite time, without extrapolation to infinity. What is called clearance is the volume of plasma or blood freed of the substance per unit of time. For orientation: Cmax means the peak of the concentration-time curve. In general, Tmax refers to the time at which the peak concentration occurs.

Data set [1] in a line: Plasma PK of Int 3-3 in CD-1 mice (study c). Format: in vivo. The following applies: after iv Int 3-3 8.8 mg/kg. The method, then:
Objectives: to determine the plasma pharmacokinetics of Int 3-3 following a single intravenous infusion of Int 3-3 at 8.83 mg/kg in CD-1 mice
PK measurements: compare PK parameters C0, CL, Vdss, Cmax, tmax, t1/2, AUC(0-t), AUC(0-inf), MRT(0-t), MRT(0-inf) for Int 3-3.

The nature of data set [2]: Metabolic stability in liver hepatocytes, monkey. Format: in vitro ADME.
Data set [3] can be described thus: Metabolic stability in liver hepatocytes, human. The class given is in vitro ADME.
Data set [4] can be described thus: Metabolic stability in liver hepatocytes, mouse. Format: in vitro ADME.
Data set [5] can be described thus: Metabolic stability in liver hepatocytes, dog. The class given is in vitro ADME.
The nature of data set [6]: Rat plasma stability. Format: in vitro ADME. The following applies: 3 μM, 37° C. Here is the method:
Method: Assay was carried out in 96-well microtiter plates. Compounds were incubated in replicates (n=2) for 0, 5, 15, 30, and 45 minutes at 37° C. Reaction mixtures (20 μL) contained a final concentration of 3 μM test compound in fresh Sprague Dawley rat plasma. Eucatropine is a positive control to verify assay performance. Linear regression of semi-log plot of % remaining of compounds versus time used to determine the half-life t1/2 values.

A short description of data set [7]: Human plasma stability. To be noted: 3 μM, 37° C. The class given is in vitro ADME. Here is the method: Method: Assay was carried out in 96-well microtiter plates. Compounds were incubated in replicates (n=2) for 0, 5, 15, 30, and 45 minutes at 37° C. Reaction mixtures (20 μL) contained a final concentration of 3 μM test compound in human plasma. Eucatropine included as positive control to verify assay performance. Linear regression of semi-log plot of % remaining of compounds versus time used to determine the half-life t½ values.

Data set [8] in a line: Mouse plasma stability (Compound 1). The class given is in vitro ADME. To be noted: 37° C.
Data set [9] can be described thus: CD-1 mouse plasma stability. The class given is in vitro ADME. To be noted: 3 μM, 37° C. Here is the method: Method: Assay was carried out in 96-well microtiter plates. Compounds were incubated in replicates (n=2) for 0, 5, 15, 30, and 45 minutes at 37° C. Reaction mixtures (20 μL) contained a final concentration of 3 μM test compound in fresh CD-1 mouse plasma. Eucatropine included as positive control to verify assay performance. Linear regression of semi-log plot of % remaining of compounds versus time used to determine the half-life t1/2 values.

Data set [10] is described as follows: Comparative plasma PK of Compound 1 versus Int 1-4 in male CD-1 mice (study b). Format: in vivo. Here is the method: Objectives: to compare the plasma pharmacokinetics and stability of Compound 1 with its non-phosphorylated SMDC analog (Int 1-4) and in plasma following a single intravenous infusion administration of Compound 1 at 11.6 mg/kg and 23.2 mg/kg with Int 1-4 (formulation F1 & F2) at 10.0 mg/kg in male CD-1 mice
PK measurements: compare PK parameters C0, CL, Vdss, Cmax, tmax, t1/2, AUC(0-t), AUC(0-inf), MRT(0-t), MRT(0-inf) for Compound 1 and Int 1-4

A short description of data set [11]: Monkey liver S9 stability. Format: in vitro ADME.
Data set [12] can be described thus: Human liver S9 stability. The class given is in vitro ADME.
Data set [13] in a line: Mouse liver S9 stability. Format: in vitro ADME.
Data set [14] is described as follows: Dog liver S9 stability. Format: in vitro ADME.
A short description of data set [15]: Rat liver S9 stability. Format: in vitro ADME.
The mark [16] stands for this setting: negative value indicates compound is stable.

Regarding `[2H]C([2H])([2H])Oc1cc(OC([2H])([2H])[2H])c2oc(COC(=O)Nc3ccn([C@@H]4O[C@H](CO)[C@@H](O)C4(F)F)c(=O)n3)cc2c1` [Int 3-3], in [1], the AUC0-inf/AUC0-last turned out to be 101%. In data set [1] (mouse), this compound showed an AUC(0-t) of 3480 ng·h/mL, a C0 of 45900 ng/mL, a clearance of 43.3 mL/min/kg and a half-life of 74.4 min. The AUC(0-inf) in [1] (mouse, read-out: AUC0-inf) worked out at 3510 ng·h/mL. Besides, in data set [1] (mouse, read-out: MRT0-inf), the MRT inf amounted to 46 min. Also, in data set [1] (mouse, read-out: MRT0-last), the MRT last turned out to be 42.2 min. Further, the Vd in data set [1] (mouse, read-out: Vdss) was 1.83 L/kg.

`C=CCN1CC[C@]23c4c5ccc(O)c4O[C@H]2C(=O)CC[C@@]3(O)[C@H]1C5` [Naxalone]: the “Slope Mean ± SE” value in data set [2] was −0.02948 ± 0.001002; in [3] it was −0.01335 ± 0.000878; in data set [4], −0.01828 ± 0.000731; in [5], −0.01302 ± 0.001119. In addition, the “t1/2 mean ± SE” value in data set [2] (setting [16]) is listed as 23.5 ± 0.8 min; in data set [3], 51.9 ± 3.4 min; in data set [4], 37.9 ± 1.5 min; in [5] (setting [16]) it was 53.2 ± 4.6 min.

For the compound `CC1CC(OC(=O)C(O)c2ccccc2)CC(C)(C)N1C` (centres unmarked) [Eucatropine, reference compound], the “Slope Mean ± SE” value is −0.007881 ± 0.00112 in data set [6] (Sprague Dawley rat plasma); −0.04591 ± 0.003277 in [7] (semi-log plot of % remaining versus time, in min-1 (unit assumed)); −0.03084 ± 0.003016 in data set [8] (3 μM); −0.03084 ± 0.003016 in data set [9] (in min-1 (unit assumed)). The half-life at 3 μM in data set [6] (fresh Sprague Dawley rat plasma, read-out: t1/2 Mean ± SE) stood at 87.9 ± 12.5 min; in data set [7] (read-out: t1/2 Mean ± SE), 15.1 ± 1.1 min; in data set [8] (CD-1, 3 μM, read-out: t1/2 Mean ± SE) it was 22.5 ± 2.2 min; in [9] (fresh CD-1 mouse plasma, read-out: t1/2 Mean ± SE), 22.5 ± 2.2 min.

On to Gemcitabine monophosphate, for which, in data set [10] (after iv Compound 1 11.6 mg/kg), the AUC0-last was determined as 0.840 ng·h/mL, the highest concentration (Cmax) was found to be 33.6 ng/mL, the MRT0-last amounted to 1.79 min and the Tmax turned out to be 1.5 min. In data set [10] (after iv Compound 1 23.2 mg/kg), this compound had an AUC0-last of 1.18 ng·h/mL, an AUC(0-inf) of 1.44 ng·h/mL, a Cmax of 30.4 ng/mL and an MRT0-inf of 3.3 min. Also, in data set [10] (after iv Compound 1 23.2 mg/kg), the MRT0-last amounted to 2.38 min, the time to peak (Tmax) was found to be 1.5 min and the t1/2 was 1.64 min.

With `COc1cc2ccc(=O)oc2cc1O` [Scopoletin, reference compound], the “Slope Mean ± SE” value in [11] (monkey liver S9) is listed as −0.1391 ± 0.01406; in data set [13] (mouse liver S9), −0.06127 ± 0.006525; in data set [14] (dog liver S9), −0.03892 ± 0.001665; in data set [15] (rat liver S9), −0.03134 ± 0.00198. Further, the half-life in [11] (monkey liver S9, read-out: t1/2 Mean ± SE) worked out at 5 ± 0.5 min; in data set [12] (human liver S9, read-out: t1/2 Mean ± SE) it was 8.2 ± 0.2 min; in data set [13] (mouse liver S9, read-out: t1/2 Mean ± SE), 11.3 ± 1.2 min; in data set [14] (dog liver S9, read-out: t1/2 Mean ± SE), 17.8 ± 0.8 min; in data set [15] (rat liver S9, read-out: t1/2 Mean ± SE), 22.1 ± 1.4 min. Besides, the microsomal CLint was 55.6 ± 5.62 µL/min/mg in data set [11] (monkey, liver S9, monkey liver S9, read-out: CLint Mean ± SE); 33.8 ± 0.92 µL/min/mg in data set [12] (human, liver S9, human liver S9, read-out: CLint Mean ± SE); 24.5 ± 2.61 µL/min/mg in [13] (mouse, liver S9, mouse liver S9, read-out: CLint Mean ± SE); 15.6 ± 0.666 µL/min/mg in [14] (dog, liver S9, dog liver S9, read-out: CLint Mean ± SE); 12.5 ± 0.792 µL/min/mg in data set [15] (rat, liver S9, rat liver S9, read-out: CLint Mean ± SE).
